Holding throughout (format): in vivo
Assay [1] deals with LPS rat models of Parkinson's disease. Briefly: Open field test. From the text: Method. The open field test is a technique commonly used to measure locomotor activity of rodents and their level of exploratory activity in an unfamiliar environment, as well as assess the levels of fear of novelty, anxiety or an increase in orientation response in rodents (Denenberg V H, et al., Physiology and Behavior, 1969; 4:403-406; Pellow S et al., J Neurosci Methods. 1985; 14(3):149-67). Behavioral patterns measured in the open field test include: distance travelled in the outer and inner perimeter, duration of time spent in the outer and inner perimeter, the total distance travelled and a percentage of the number of internal squares crossed compared to the total number of squares.
The open field was a square chamber 100×100 cm in size and with walls 60 cm high. The chamber was illuminated by two LED bulbs, 60 watts each, hanging at a height of 2 m. An IP camera was used to record the rodent movement. The MATLAB-based software was used to analyze the parameters. The statistical analysis was performed using GraphPad Prism. Significance was set at <0.005. The data collected from the open field were analyzed using One-way ANOVA (Tukey test or Dunnett test) and Unpaired t-test or Mann-Whitney.
Data analysis and interpretation. A novel environment in which an animal finds itself evokes conflict between fear and a desire to explore this environment. These two behavioral tendencies are characterized by different temporal variations and different spatial advantages. In the analysis, an arena is divided into two zones: inner and outer. The total locomotor activity and time spent in the inner and outer zones are the most significant parameters for assessing the levels of anxiety in rats. […] An increase in attendance of the inner zone is interpreted as a decreased anxiety in the animal. The emotional and exploratory behavior of an animal can be affected by various disorders in such brain regions as the hippocampus and the amygdala. In addition, various substances that have anxiolytic, stimulating and muscle relaxant effects can influence the results of the experiment. FIG. 50A and FIG. 50B show an example of analysis of a rat trajectory in the experimental arena.
(§1) On the 1st day of the experiment, rats were either operated to model hemi-parkinsonism or sham operated. From the 9th to the 18th day of the experiment, the animals were injected either deuterium-depleted water or the test substance, according to their allocation into groups, for 10 days. On the 8th day of the experiment (before initiation of treatment—apomorphine test I) and on the 21st day of the experiment (after the end of administering the test substance —apomorphine test II) the animals underwent an apomorphine test to analyze the development of hemi-parkinsonism which correlates with the number of destroyed dopaminergic neurons. In addition, a follow-up analysis of fecal water content was carried out, i.e., before the start of treatment on the 8th day after the operation, as well as on the 21st (after the end of treatment) and the 28th day (before autopsy). On the 24th day of the experiment, behavioral tests were carried out in all groups. All animals were weighed before autopsy. During autopsy, ⅔ of animals from each group were sacrificed by cervical dislocation and brain and blood samples were collected for further biochemical and immunological tests. ⅓ of the animals were used for further immunohistochemical studies of the brain; for this purpose, under anesthesia, a procedure of fast, controlled and uniform fixation of the whole body of the animal was performed using 4% paraformaldehyde perfused through the heart of the rat to obtain the best preservation of the brain architecture for immunohistochemistry. Gage G J, et al., J Vis Exp. 2012 Jul. 30; (65).

Assay [2] deals with microglia. Nature of the assay: Functional and phenotypic properties of microglia in LPS rat models. As to conditions: LPS animal models of PD. Here is the method: as §1
(§2) To assess the anti-inflammatory and immunomodulating effects of the test substance, microglia and peritoneal macrophages were isolated. Phenotypic and functional features of peripheral blood phagocytes were evaluated without their fractioning (using whole blood). […]
(§3) Phagocytic activity of microglia, peritoneal macrophages and peripheral blood phagocytes was analyzed on a flow cytometer using FITC-labeled S. aureus Wood 46 cells as an object of phagocytosis. […]
(§4) Oxidative metabolism of phagocytes of various localization was analyzed by flow cytometry using the cell-permeant 2′7′-dichlorodihydrofluorescein-diacetate (DHP) (carboxy-H2DCFDA, Invitrogen, USA) which is converted by intracellular esterases to the nonfluorescent membrane-impermeable carboxy-H2DCF form.
(§5) The phenotypic profile of phagocytes of various localization was characterized by the expression of markers of functional maturity and metabolic polarization (CD206, CD80 and CD86), which was determined by flow cytometry and the use of monoclonal antibodies of appropriate specificity marked with fluorescent dyes (Abcam, Becton Dickinson).

In assay [3] the test system is peritoneal macrophages. Briefly: Functional and phenotypic properties of peritoneal phagocytes in LPS rat models. As to conditions: animal models of PD. How it is done:
On the 1st day of the experiment, rats were either operated to model hemi-parkinsonism or sham operated. From the 9th to the 18th day of the experiment, the animals were injected either deuterium-depleted water or the test substance, according to their allocation into groups, for 10 days. On the 8th day of the experiment (before initiation of treatment—apomorphine test I) and on the 21st day of the experiment (after the end of administering the test substance —apomorphine test II) the animals underwent an apomorphine test to analyze the development of hemi-parkinsonism which correlates with the number of destroyed dopaminergic neurons. In addition, a follow-up analysis of fecal water content was carried out, i.e., before the start of treatment on the 8th day after the operation, as well as on the 21st (after the end of treatment) and the 28th day (before autopsy). On the 24th day of the experiment, behavioral tests were carried out in all groups. All animals were weighed before autopsy. […]
as §2, §3, §4, §5

Consider “^64Zn-enriched zinc aspartate [^64Zne-asp]”, for which the “frequency of defecations (in words)” value in assay [1] (LPS + ^64Zn-asp versus LPS + deuterium-depleted water) is listed as “increased”. Besides, in assay [1] (LPS + ^64Zn-asp, Gr. V), the Number of defecations worked out at 7 ± 2.582, the Number of groomings came to 3.5 ± 1.354, the Number of rearings is 14.4 ± 6.687 and the “Time spent in the inner perimeter” value was found to be 9.235 ± 9.344 s. Further, in assay [1] (LPS + ^64Zn-asp, Gr. V), the “Time spent in the outer perimeter” value is 290.8 ± 9.333 s and the “Total distance travelled, cm” value is listed as 1056 ± 423 cm. Also, the “levels of locomotor activity, anxiety or irritability (summary of behavioral tests)” value in assay [1] (findings of Example 7) is recorded as “no significant effects”. Also, in assay [1] (group V (LPS+^64Zn-asp) versus group IV (LPS)), the “total distance travelled, time in outer and inner perimeter, number of rearings and groomings (in words)” value was “did not have any effect”. In assay [2], the “expression of CD86 by microglia” value was “significant increase”, the “expression of CD206 by microglia” value is “increased expression”, the “oxidative metabolism of microglia” value was “slightly but statistically significantly increased” and the “phagocytic activity of microglia” value is “sharp increase”. In assay [3], the “expression of all phenotypic markers in peritoneal macrophages” value was “significant increase”, the “oxidative metabolism of the peritoneal exudate cells” value is listed as “decrease” and the “phagocytic activity of the peritoneal exudate cells” value was “activation”.

For the origin of these results see patent US11779597B2, “Method of treating Parkinson's and other neurodegenerative diseases” (Vector Vitale IP LLC, priority 2019, dated 2023).
